Data published in US10918641B2, “Use of MTAP inhibitors for the treatment of lung disease” (The University of North Carolina at Chapel Hill, priority 2015, dated 2021).
≈ marks a conversion by molar mass, not a printed value. Entries after “also recorded” stand apart in the source; their conditions may differ.

Legend:
[1] = Toxicity in in vitro (2D and 3D culture) and in vivo studies to date; details: all in vitro (2D and 3D culture) and in vivo studies to date
physchem = details: PBS, aqueous buffer
[2] = Acute and seven-day repeat-dose toxicity by gavage in CD-1 mice
Method: In CD-1 mice, a single dose of MTDIA was administered by gavage to establish acute toxicity (300, 600 and 1000 mg/kg), or once daily for seven consecutive days (0, 600 and 1000 mg/kg/day) to determine repeat-dose toxicity. Mice were monitored for abnormalities, survival rates, histopathological changes (heart, lung, liver, kidney, spleen, small intestine and stomach were evaluated histopathologically by a board certified pathologist), clinical chemistry and complete blood count (CBC) analysis.

Scnn1b-Tg mice [3] = assay: 15 mg/kg oral gavage once daily for three days in Scnn1b-Tg mice; type: in vivo, mouse
Method: Therefore, we repeated the above study in Scnn1b-Tg mice using 15 mg/kg MTDIA by oral gavage once daily for three days. With the longer treatment, we observed increases in serum (FIG. 8A) and BALF (FIG. 8B) MTA concentrations in treated mice relative to vehicle treated animals (n=13 and 11, respectively), similar to the changes seen with the single dose experiments.
Similar differences were observed when BALF inflammatory cells were analyzed as cell differentials rather than cell counts. These findings provide compelling evidence that MTDIA can act as an anti-inflammatory drug in a chronic airways disease model.

[4] = MTDIA plasma pharmacokinetics after oral or i.p. dose in CD-1 mice; details: in words
[5] = Stability of MTDIA in drinking water (MS method); type: physicochemical; details: three days, room temperature
MTA metabolism at MTAP [6] = system: MTA metabolism at MTAP
Method: A) Serum MTA concentrations after single oral dose of various concentrations of MTDIA (range 0.6-150 mg/kg, numbers on graph represent dose in mg/kg MTDIA) as well as a 10 mg/kg dose IV.

MTA metabolism at MTAP [7] = assay: MTDIA in drinking water of WT mice, serum and BALF MTA; type: in vivo
Method: The effect of a range of MTDIA concentrations in drinking water on serum and BALF MTA concentrations in WT mice is explored using protocols similar to those described above, except that MTDIA is delivered in drinking water rather than oral gavage. In preliminary experiments, we calculated that 75 μg/mL of MTDIA in drinking water would deliver a dose of 15 mg/kg per day that we utilized in our single dose experiments (based on estimates of a 25 g mouse drinking […] water per day), and we examined WT mice treated with this dose as well as half of this dose (37.5 μg/mL) relative to mice drinking untreated water. […] Once this dose is established, this dose is tested over three days in our Scnn1b-Tg and CF/Scnn1b-Tg mice to ensure that we observe similar effects in these models.

MTAP = MTAP (Mus musculus, UniProt Q9CQ65)
MTAP, sequence (Q9CQ65 whole entry): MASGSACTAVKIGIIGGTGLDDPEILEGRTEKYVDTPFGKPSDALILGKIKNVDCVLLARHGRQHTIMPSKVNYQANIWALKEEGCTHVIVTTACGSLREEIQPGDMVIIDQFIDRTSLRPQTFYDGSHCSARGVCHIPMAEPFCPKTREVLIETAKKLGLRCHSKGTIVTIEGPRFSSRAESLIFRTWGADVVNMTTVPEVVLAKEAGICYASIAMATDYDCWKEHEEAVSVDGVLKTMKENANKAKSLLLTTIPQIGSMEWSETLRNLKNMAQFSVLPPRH

[8] = system: protein receptor and kinase panels; assay: Protein receptor and kinase panels (off-target effects); type: binding
[9] = Metabolic stability in human hepatocytes and microsomes
human MTAP = target: T1, human MTAP (Homo sapiens, UniProt Q13126); assay: Inhibition of human MTAP by transition state analogue (Ki*); type: biochemical
T1 sequence (Q13126 1-283): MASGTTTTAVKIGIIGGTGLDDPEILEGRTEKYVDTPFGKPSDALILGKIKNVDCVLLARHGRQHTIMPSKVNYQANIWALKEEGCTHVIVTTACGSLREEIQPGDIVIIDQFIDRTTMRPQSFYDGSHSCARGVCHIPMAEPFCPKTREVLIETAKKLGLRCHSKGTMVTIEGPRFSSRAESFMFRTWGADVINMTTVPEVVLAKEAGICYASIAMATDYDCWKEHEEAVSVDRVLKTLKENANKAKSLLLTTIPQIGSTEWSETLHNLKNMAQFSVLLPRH

Scnn1b-Tg mice [10] = assay: Single 15 mg/kg oral gavage dose in WT and Scnn1b-Tg mice
MTA metabolism at MTAP [11] = system: MTA metabolism at MTAP; remark: listed apart in the source
[12] = 15 mg/kg once daily, three days

CSC[C@H]1CN(Cc2c[nH]c3c(N)ncnc23)C[C@@H]1O [MTDIA, (3R,4S)-1-[(9-deazaadenin-9-yl)methyl]-3-hydroxy-4-(methylthiomethyl)pyrrolidine]
Toxicity observed [1]: No significant toxicity
solubility (physchem): 156 mM (≈ 45.8 mg/mL)
LOAEL (Lowest-Observed-Adverse-Effect level) ([2]; CD-1 mice, gavage): 600 mg/kg/day
Histopathological findings ([2]; mouse, in vivo): No histopathological findings were detected
BALF MTA concentrations vs. vehicle (Scnn1b-Tg mice [3]; [12]): increases
Free concentrations of spermine and spermidine in serum or BALF (Scnn1b-Tg mice [3]; [12]): did not observe large changes; also recorded: minimal changes
Serum MTA concentrations vs. vehicle (Scnn1b-Tg mice [3]; [12]): increases; also recorded: increased serum MTA concentrations
Bronchus-associated lymphoid tissue (BALT), lung histology (Scnn1b-Tg mice [3]; three days of MTDIA treatment): meaningfully reduced; also recorded: greatly reduced
Enlarged activated macrophage phenotype (BALF cytospins) (Scnn1b-Tg mice [3]; three days of MTDIA treatment): appears to be reduced; also recorded: resolve to a more WT appearance
BALF macrophage cell counts (Scnn1b-Tg mice [3]; three days oral MTDIA): corresponding increase
BALF eosinophil cell count (Scnn1b-Tg mice [3]; three days oral MTDIA, vehicle 14.2+13.5, p<0.001): 2.2+3.2 ×10^3 cells/ml
BALF neutrophil cell count (Scnn1b-Tg mice [3]; three days oral MTDIA, vehicle 32.0+16.9, p<0.001): 11.5+8.2 ×10^3 cells/ml
Oral availability [4]: orally available
Stability in drinking water [5]: stable
Oral dose yielding maximal response in serum MTA concentrations (MTA metabolism at MTAP [6]; previous experiments, as stated in Example 7): 15 mg/kg
Oral dose with maximum effect on serum MTA concentrations (MTA metabolism at MTAP [6]; single oral dose range 0.6-150 mg/kg (FIG. 7A legend)): 30 mg/kg
Serum MTA concentrations vs. control (MTA metabolism at MTAP [7]; 37.5 μg/mL in drinking water): more than two orders of magnitude higher than control; also recorded: orders of magnitude increases
Serum MTA concentrations vs. control (MTA metabolism at MTAP [7]; 75 μg/mL in drinking water): more than two orders of magnitude higher than control; also recorded: orders of magnitude increases
BALF MTA vs. control (MTA metabolism at MTAP [7]; 37.5 or 75 μg/mL in drinking water): less dramatic increases; also recorded: increased BALF MTA concentrations
Duration of inhibition of MTAP activity in vivo (MTAP; an oral or i.p. dose): > 24 h
Time for MTAP catalytic activity in mouse serum to return to normal (MTAP; single oral dose 15 mg/kg): ≤ 36 h
Time for which catalytic activity of MTAP in mouse serum is completely inhibited (MTAP; single oral dose 15 mg/kg): 24 h
Off-target effects in protein receptor and kinase panels [8]: minimal off-target effects
Time metabolically stable ([9]; in vitro, human hepatocytes and microsomes): over 4 hr
Metabolic stability in microsomes and hepatocytes ([9]; in words): metabolically stable
Ki (human MTAP): 0.086 nM
Affinity for MTAP (human MTAP; in words): picomolar affinity
BALF inflammatory markers (Scnn1b-Tg mice [10]; after a single dose): did not observe any changes
Serum MTA concentrations (Scnn1b-Tg mice [10]; single 15 mg/kg oral gavage, 24 hours, WT and Scnn1b-Tg mice, 15 mg/kg): increase; also recorded: increases serum MTA
Urinary MTA (MTA metabolism at MTAP [11]; 15 mg/kg, mice): approximately 30 μM
Increase of plasma MTA levels (MTA metabolism at MTAP [11]; 15 mg/kg, mice, after 30 min): > 100 fold
Decrease in polyamine concentrations (MTA metabolism at MTAP [11]; an oral or i.p. dose): ~2 fold
MTA accumulation in plasma over baseline levels (MTA metabolism at MTAP [11]; an oral or i.p. dose): > 100 fold
